Reference: ChEMBL document CHEMBL1135196, “4-Aminoarylguanidine and 4-aminobenzamidine derivatives as potent and selective urokinase-type plasminogen activator inhibitors” (Bioorg Med Chem Lett, 2002)

Tests used:
Coagulation factor X [1] = target: T1, Coagulation factor X (Homo sapiens, UniProt P00742); assay: The compound was evaluated to inhibit the Coagulation factor X
Plasminogen = Plasminogen (Homo sapiens, UniProt P00747); assay: Inhibition of plasmin
Prothrombin = Prothrombin (Homo sapiens, UniProt P00734); assay: Inhibition of thrombin
[2] = target: T2, Tissue-type plasminogen activator (Homo sapiens, UniProt P00750); assay: Activation of plasminogen
[3] = target: Urokinase-type plasminogen activator (Homo sapiens, UniProt P00749)
Description: Inhibition of urokinase-type plasminogen activator (microPa)

Coagulation factor X [4] = target: T1, Coagulation factor X; assay: Inhibition of coagulation factor X
[5] = target: T2, Tissue-type plasminogen activator; assay: Activation of tissue plasminogen

T2 sequence (P00750 whole entry): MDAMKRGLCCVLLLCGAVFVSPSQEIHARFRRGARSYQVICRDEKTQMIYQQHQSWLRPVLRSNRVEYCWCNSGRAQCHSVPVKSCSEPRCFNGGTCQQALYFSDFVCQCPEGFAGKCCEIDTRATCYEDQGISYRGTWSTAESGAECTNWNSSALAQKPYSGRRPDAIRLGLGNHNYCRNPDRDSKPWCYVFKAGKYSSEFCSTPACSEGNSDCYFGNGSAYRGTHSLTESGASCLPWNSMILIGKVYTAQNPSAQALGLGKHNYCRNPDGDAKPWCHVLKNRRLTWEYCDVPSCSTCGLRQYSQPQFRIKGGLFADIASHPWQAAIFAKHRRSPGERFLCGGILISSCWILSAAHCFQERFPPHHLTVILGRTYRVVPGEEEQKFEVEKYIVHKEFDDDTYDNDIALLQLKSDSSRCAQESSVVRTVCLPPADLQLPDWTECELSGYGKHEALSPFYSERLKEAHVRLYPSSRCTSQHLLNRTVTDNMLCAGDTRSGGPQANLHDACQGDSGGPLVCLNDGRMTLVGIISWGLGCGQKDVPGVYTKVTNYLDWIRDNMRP
Sequence of Plasminogen (P00747 97-580 limits assumed): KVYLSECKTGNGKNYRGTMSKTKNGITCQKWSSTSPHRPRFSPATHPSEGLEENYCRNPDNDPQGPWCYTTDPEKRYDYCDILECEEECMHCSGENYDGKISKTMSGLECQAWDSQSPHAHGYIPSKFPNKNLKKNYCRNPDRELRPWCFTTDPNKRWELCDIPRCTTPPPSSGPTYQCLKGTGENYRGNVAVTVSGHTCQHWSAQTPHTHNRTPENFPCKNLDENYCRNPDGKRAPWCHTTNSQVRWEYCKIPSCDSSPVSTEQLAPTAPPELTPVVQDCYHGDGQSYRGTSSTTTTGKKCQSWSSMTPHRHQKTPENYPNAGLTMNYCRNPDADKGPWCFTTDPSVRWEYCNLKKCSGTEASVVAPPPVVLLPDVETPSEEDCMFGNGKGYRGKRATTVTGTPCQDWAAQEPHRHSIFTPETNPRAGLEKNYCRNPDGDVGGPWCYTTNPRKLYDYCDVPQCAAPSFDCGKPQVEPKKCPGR
Sequence of Plasminogen (P00747 581-810 limits assumed): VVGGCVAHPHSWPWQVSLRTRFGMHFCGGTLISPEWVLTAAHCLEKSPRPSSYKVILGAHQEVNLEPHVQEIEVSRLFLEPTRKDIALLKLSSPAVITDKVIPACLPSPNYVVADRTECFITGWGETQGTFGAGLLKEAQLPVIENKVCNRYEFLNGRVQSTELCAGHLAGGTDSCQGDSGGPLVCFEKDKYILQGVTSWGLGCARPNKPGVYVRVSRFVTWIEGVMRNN
T1 sequence (P00742 41-179 limits assumed): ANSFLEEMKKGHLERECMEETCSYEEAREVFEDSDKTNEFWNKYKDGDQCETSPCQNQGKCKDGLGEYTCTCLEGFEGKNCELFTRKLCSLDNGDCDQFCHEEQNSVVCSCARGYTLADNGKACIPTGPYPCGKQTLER
T1 sequence (P00742 235-488 limits assumed): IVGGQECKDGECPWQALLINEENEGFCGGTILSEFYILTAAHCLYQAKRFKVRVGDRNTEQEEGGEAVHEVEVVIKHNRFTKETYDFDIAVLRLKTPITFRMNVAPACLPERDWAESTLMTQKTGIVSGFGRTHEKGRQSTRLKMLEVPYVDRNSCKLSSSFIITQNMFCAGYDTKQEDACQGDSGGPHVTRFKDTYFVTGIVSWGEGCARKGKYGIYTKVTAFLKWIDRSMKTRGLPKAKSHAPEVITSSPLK

| SMILES | Ki (Coagulation factor X [1]) | Ki (Plasminogen) | Ki (Prothrombin) | Ki [2] | Ki [3] | Ki (Coagulation factor X [4]) | Ki [5] |
| --- | --- | --- | --- | --- | --- | --- | --- |
| N=C(N)c1ccc(NC(=O)c2ccc(Cl)cc2O)cc1 | 2.8 µM | 27 µM | 9.5 µM | 2.4 µM | 6 µM |  |  |
| NC(N)=Nc1ccc(NC(=O)c2cccc(-c3ccccc3)c2O)cc1 |  |  | > 450 µM |  |  | > 470 µM | > 95 µM |
| N=C(N)c1ccc(NC(=O)c2cccc(-c3ccccc3)c2O)cc1 |  |  | 120 µM | 53 µM | 8.5 µM | 188 µM |  |
| NC(N)=Nc1ccc(NC(=O)c2ccc(Cl)cc2O)cc1 |  |  | > 450 µM |  |  | > 470 µM | > 95 µM |
| Cc1cc(I)c(O)c(C(=O)Nc2ccc(C(=N)N)c(F)c2)c1 |  |  |  | 1.7 µM |  | 0.52 µM |  |
| NC(N)=Nc1ccc(NC(=O)c2cccc(Cl)c2O)cc1 |  |  | > 450 µM |  |  | 470 µM | > 95 µM |
| NC(N)=Nc1ccc(NC(=O)c2ccccc2O)cc1 |  | > 75 µM | > 450 µM | > 95 µM |  | 104 µM |  |
| N=C(N)c1ccc(NC(=O)c2cccc(Cl)c2O)cc1 |  |  | 1 µM | 1.5 µM | 0.6 µM | 1 µM |  |
| CC(C)Oc1c(O)c(C(=O)Nc2ccc(NC(=N)N)cc2)cc2ccccc12 |  |  | > 450 µM |  |  | 240 µM | > 563 µM |
| Cc1cccc(C(=O)Nc2ccc(C(=N)N)cc2)c1O |  | 18 µM | 8 µM | 3.9 µM | 1.7 µM | 5.7 µM |  |
| CCOc1ccc(C(=O)Nc2ccc(C(=N)N)cc2)c(O)c1 | 37 µM |  | 34 µM | 2 µM | 0.65 µM |  |  |
| Cc1cccc(C(=O)Nc2ccc(NC(=N)N)cc2)c1O |  |  | > 450 µM |  |  | 350 µM | > 95 µM |
| N=C(N)Nc1ccc(NC(=O)c2cc3ccccc3c(I)c2O)cn1 |  | > 75 µM | 310 µM |  |  | 68 µM |  |
| N=C(N)Nc1ccc(NC(=O)c2cc3ccccc3c(I)c2O)cc1 |  | > 75 µM | > 450 µM |  |  | > 470 µM | > 95 µM |
| Cc1cc(Br)c(O)c(C(=O)Nc2ccc(C(=N)N)cc2)c1 |  |  | 0.28 µM | 0.36 µM |  | 0.44 µM |  |
| COc1ccc(O)c(C(=O)Nc2ccc(C(=N)N)cc2)c1 | 5.2 µM |  | 12 µM | 9.4 µM | 3.1 µM |  |  |
| NC(N)=Nc1ccc(NC(=O)c2cc(Br)ccc2O)cc1 |  |  | > 450 µM | > 95 µM |  | > 470 µM |  |

| SMILES | Ki (Coagulation factor X [1]) | Ki (Plasminogen) | Ki (Prothrombin) | Ki [2] | Ki [3] | Ki (Coagulation factor X [4]) | Ki [5] |
| --- | --- | --- | --- | --- | --- | --- | --- |
| N=C(N)c1ccc(NC(=O)c2cc(Br)ccc2O)cc1 | 15 µM |  | 29 µM | 21 µM |  |  |  |
| Cc1ccc(O)c(C(=O)Nc2ccc(C(=N)N)cc2)c1 | 9.4 µM |  | 14 µM | 6.9 µM | 2.6 µM |  |  |
| N=C(N)c1ccc(NC(=O)c2cc([N+](=O)[O-])ccc2O)cc1 | 99 µM |  | 185 µM | 94 µM | 44 µM |  |  |
| [H]/N=C(/N)c1ccc(NC(=O)c2cc(C)cc(I)c2O)cc1Cl |  |  | 245 µM | 256 µM |  | 115 µM |  |
| CCOc1ccc(C(=O)Nc2ccc(NC(=N)N)cc2)c(O)c1 |  | > 75 µM | > 450 µM |  | 10 µM | > 470 µM | > 95 µM |
| N=C(N)Nc1ccc(NC(=O)c2cc3ccccc3c(Br)c2O)cc1 |  | > 75 µM | > 450 µM |  |  | > 470 µM | > 95 µM |
| Cc1ccc(C(=O)Nc2ccc(C(=N)N)cc2)c(O)c1 |  | 6 µM | 10 µM | 3.6 µM | 1 µM | 2.3 µM |  |
| Cc1cc(I)c(O)c(C(=O)Nc2ccc(C(=N)N)cc2)c1 |  | 0.29 µM | 0.38 µM | 0.24 µM |  | 0.46 µM |  |
| Cc1cc(I)c(O)c(C(=O)Nc2ccc(NC(=N)N)cc2)c1 |  | > 75 µM | > 450 µM |  | 8.5 µM | > 470 µM | > 563 µM |
| Cc1ccc(C(=O)Nc2ccc(NC(=N)N)cc2)c(O)c1 |  |  | > 450 µM |  |  | > 470 µM | > 95 µM |
| N=C(N)Nc1ccc(NC(=O)c2cc([N+](=O)[O-])ccc2O)cc1 |  |  | 315 µM | > 95 µM | > 75 µM | > 470 µM |  |
| COc1ccc(O)c(C(=O)Nc2ccc(NC(=N)N)cc2)c1 |  |  | > 450 µM |  | 20 µM | > 470 µM | > 95 µM |
| Cc1cc(Br)c(O)c(C(=O)Nc2ccc(NC(=N)N)cc2)c1 |  | 205 µM | 125 µM |  |  | 151 µM | 258 µM |
| N=C(N)Nc1ccc(NC(=O)c2cc3ccccc3c(Br)c2O)cn1 |  | > 75 µM | 330 µM |  |  | 235 µM |  |
| N=C(N)c1ccc(NC(=O)c2ccccc2O)cc1 | 12 µM | 90 µM | 22 µM |  | 2.7 µM |  | 10 µM |
| Cc1ccc(O)c(C(=O)Nc2ccc(NC(=N)N)cc2)c1 |  | > 75 µM | > 450 µM | > 95 µM |  | > 470 µM |  |
